Results published in PubChem BioAssay AID248 (DTP/NCI, 2004).
Values joined by “and” are separate entries in the source; they are usually repeats but may differ in a detail not shown here. Identical values can stand only once. Toxic doses and inconclusive results are not listed. Cut-off read from the data, not from the text of the source: active = T/C of 150% or more; inactive = T/C below 125%. Peptide text beside a SMILES is read from it. * marks the point of attachment. Trt = c1ccc(C(c2ccccc2)(c2ccccc2)*)cc1; Boc = CC(C)(C)OC(=O)*

Tested on: L1210 leukemia ip in BDF1 mice, survival T/C
Experiment: NCI In Vivo Anticancer Drug Screen. Data for tumor model L1210 Leukemia (intraperitoneal) in B6D2F1 (BDF1) mice
Conditions: endpoint: mean survival time, higher = longer survival
In short: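 Read-out is survival time, reported as the treated-group measurement over the vehicle-control measurement.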

[1] = dose: 100.0 mg/kg/injection, schedule: Q01DX001 (ip), vehicle: saline
[2] = dose: 200.0 mg/kg/injection, schedule: Q01DX001 (ip), vehicle: saline
[3] = dose: 200.0 mg/kg/injection, schedule: Q01DX009 (ip), vehicle: saline with Tween-80
[4] = dose: 400.0 mg/kg/injection, schedule: Q01DX001 (ip), vehicle: saline
[5] = dose: 400.0 mg/kg/injection, schedule: Q01DX009 (ip), vehicle: saline with Tween-80
[6] = dose: 100.0 mg/kg/injection, schedule: Q01DX009 (ip), vehicle: saline with Tween-80
[7] = dose: 100.0 mg/kg/injection, schedule: Q04DX003 (ip), vehicle: Klucel (hydroxypropylcellulose) (HPC)
[8] = dose: 200.0 mg/kg/injection, schedule: Q04DX003 (ip), vehicle: Klucel (hydroxypropylcellulose) (HPC)
[9] = dose: 400.0 mg/kg/injection, schedule: Q04DX003 (ip), vehicle: Klucel (hydroxypropylcellulose) (HPC)
[10] = dose: 100.0 mg/kg/injection, schedule: Q04DX003 (ip), vehicle: saline with Tween-80
[11] = dose: 200.0 mg/kg/injection, schedule: Q04DX003 (ip), vehicle: saline with Tween-80
[12] = dose: 400.0 mg/kg/injection, schedule: Q04DX003 (ip), vehicle: saline with Tween-80

Measured: T/C

NC(=O)CC(N)C(=O)O (configuration not stated)
inactive: [1] 96 % of control | dose: 100.0 mg/kg/injection, schedule: Q04DX003 (ip), vehicle: saline 98 % of control | dose: 200.0 mg/kg/injection, schedule: Q01DX001 (ip), vehicle: other 107 % of control | [2] 97 % of control and 104 % of control | dose: 200.0 mg/kg/injection, schedule: Q01DX009 (ip), vehicle: other 102 % of control | [3] 98 % of control | dose: 200.0 mg/kg/injection, schedule: Q01DX009 (ip), vehicle: saline 97 % of control | dose: 200.0 mg/kg/injection, schedule: Q04DX003 (ip), vehicle: other 102 % of control | dose: 200.0 mg/kg/injection, schedule: Q04DX003 (ip), vehicle: saline 106 % of control and 108 % of control | dose: 400.0 mg/kg/injection, schedule: Q01DX001 (ip), vehicle: other 107 % of control | [4] 98 % of control | dose: 400.0 mg/kg/injection, schedule: Q01DX009 (ip), vehicle: other 94 % of control | [5] 96 % of control | dose: 400.0 mg/kg/injection, schedule: Q01DX009 (ip), vehicle: saline 103 % of control | dose: 400.0 mg/kg/injection, schedule: Q04DX003 (ip), vehicle: other 96 % of control | dose: 400.0 mg/kg/injection, schedule: Q04DX003 (ip), vehicle: saline 106 % of control and 102 % of control | dose: 800.0 mg/kg/injection, schedule: Q01DX001 (ip), vehicle: other 105 % of control | dose: 800.0 mg/kg/injection, schedule: Q01DX001 (ip), vehicle: saline 106 % of control | dose: 800.0 mg/kg/injection, schedule: Q01DX009 (ip), vehicle: other 100 % of control | dose: 800.0 mg/kg/injection, schedule: Q01DX009 (ip), vehicle: saline with Tween-80 101 % of control | dose: 800.0 mg/kg/injection, schedule: Q01DX009 (ip), vehicle: saline 100 % of control | dose: 800.0 mg/kg/injection, schedule: Q04DX003 (ip), vehicle: other 103 % of control | dose: 800.0 mg/kg/injection, schedule: Q04DX003 (ip), vehicle: saline 101 % of control | dose: 1600.0 mg/kg/injection, schedule: Q01DX001 (ip), vehicle: other 112 % of control | dose: 1600.0 mg/kg/injection, schedule: Q01DX001 (ip), vehicle: saline 101 % of control | dose: 1600.0 mg/kg/injection, schedule: Q01DX009 (ip), vehicle: other 103 % of control | dose: 1600.0 mg/kg/injection, schedule: Q01DX009 (ip), vehicle: saline with Tween-80 98 % of control | dose: 1600.0 mg/kg/injection, schedule: Q01DX009 (ip), vehicle: saline 99 % of control | dose: 1600.0 mg/kg/injection, schedule: Q04DX003 (ip), vehicle: other 96 % of control | dose: 1600.0 mg/kg/injection, schedule: Q04DX003 (ip), vehicle: saline 100 % of control

CCC(C)NNC(C)CC (configuration not stated)
inactive: dose: 75.0 mg/kg/injection, schedule: Q01DX001 (ip), vehicle: other 98 % of control | dose: 150.0 mg/kg/injection, schedule: Q01DX001 (ip), vehicle: other 112 % of control | dose: 300.0 mg/kg/injection, schedule: Q01DX001 (ip), vehicle: other 103 % of control

COc1ccc(OCCCCCCCCCCBr)cc1
inactive: dose: 100.0 mg/kg/injection, schedule: Q04DX002 (ip), vehicle: other 101 % of control | dose: 200.0 mg/kg/injection, schedule: Q04DX002 (ip), vehicle: other 96 % of control | dose: 400.0 mg/kg/injection, schedule: Q04DX002 (ip), vehicle: other 93 % of control

COc1cc(OC)c(OC)cc1C=NC1CCCCCCC1
inactive: dose: 50.0 mg/kg/injection, schedule: Q01DX009 (ip), vehicle: saline with Tween-80 91 % of control | [6] 102 % of control | [3] 102 % of control

O=C1c2ccccc2C(=O)N1CCCN1C(=O)c2ccccc2C1=O
inactive: dose: 100.0 mg/kg/injection, schedule: Q01DX001 (ip), vehicle: saline with Tween-80 111 % of control | dose: 100.0 mg/kg/injection, schedule: Q04DX002 (ip), vehicle: gum acacia 104 % of control | dose: 200.0 mg/kg/injection, schedule: Q01DX001 (ip), vehicle: saline with Tween-80 102 % of control | dose: 200.0 mg/kg/injection, schedule: Q04DX002 (ip), vehicle: gum acacia 96 % of control | dose: 400.0 mg/kg/injection, schedule: Q01DX001 (ip), vehicle: saline with Tween-80 100 % of control | dose: 400.0 mg/kg/injection, schedule: Q04DX002 (ip), vehicle: gum acacia 93 % of control

CCOC(=O)c1[nH]cnc1N
inactive: [1] 96 % of control | [2] 94 % of control | [4] 96 % of control

COc1ccc(NC(C)=O)cc1S(=O)(=O)F
inactive: dose: 100.0 mg/kg/injection, schedule: Q01DX001 (ip), vehicle: Klucel (hydroxypropylcellulose) (HPC) 93 % of control | [7] 102 % of control | dose: 200.0 mg/kg/injection, schedule: Q01DX001 (ip), vehicle: Klucel (hydroxypropylcellulose) (HPC) 88 % of control | [8] 104 % of control | dose: 400.0 mg/kg/injection, schedule: Q01DX001 (ip), vehicle: Klucel (hydroxypropylcellulose) (HPC) 93 % of control | [9] 96 % of control

O=C1OC(=O)C2C3C=CC3C12 (configuration not stated)
inactive: dose: 100.0 mg/kg/injection, schedule: Q04DX002 (ip), vehicle: Klucel (hydroxypropylcellulose) (HPC) 95 % of control | dose: 200.0 mg/kg/injection, schedule: Q04DX002 (ip), vehicle: Klucel (hydroxypropylcellulose) (HPC) 100 % of control | dose: 400.0 mg/kg/injection, schedule: Q04DX002 (ip), vehicle: Klucel (hydroxypropylcellulose) (HPC) 92 % of control

CCCCCCCCCN1CCCC(C)C1 (configuration not stated)
inactive: dose: 12.5 mg/kg/injection, schedule: Q04DX002 (ip), vehicle: Klucel (hydroxypropylcellulose) (HPC) 93 % of control | dose: 25.0 mg/kg/injection, schedule: Q04DX002 (ip), vehicle: Klucel (hydroxypropylcellulose) (HPC) 97 % of control | dose: 50.0 mg/kg/injection, schedule: Q04DX002 (ip), vehicle: Klucel (hydroxypropylcellulose) (HPC) 101 % of control

COC(=O)c1ccc(OC)c2nc3c(C=O)c(OC)cc(OC)c3nc12
inactive: [10] 102 % of control | [11] 109 % of control | [12] 95 % of control

Nc1ncnc2nc[nH]c12.[Tl]
inactive: dose: 3.12 mg/kg/injection, schedule: Q01DX009 (ip), vehicle: water 95 % of control | dose: 3.12 mg/kg/injection, schedule: Q04DX003 (ip), vehicle: water 103 % of control | dose: 6.25 mg/kg/injection, schedule: Q01DX009 (ip), vehicle: water 95 % of control | dose: 6.25 mg/kg/injection, schedule: Q04DX003 (ip), vehicle: water 108 % of control | dose: 12.5 mg/kg/injection, schedule: Q04DX003 (ip), vehicle: water 105 % of control

CCCNC1(C(=O)O)CCCc2ccccc21 (configuration not stated)
inactive: [7] 100 % of control | [8] 100 % of control | [9] 102 % of control

CC(C)(C)OC(=O)NC(CSC(c1ccccc1)(c1ccccc1)c1ccccc1)C(=O)NC(Cc1ccccc1)C(=O)NCC(=O)O (stereo not drawn) (Boc-Cys(Trt)-Phe-Gly-OH; configuration not given here)
inactive: dose: 75.0 mg/kg/injection, schedule: Q01DX001 (ip), vehicle: saline 93 % of control | dose: 150.0 mg/kg/injection, schedule: Q01DX001 (ip), vehicle: saline 91 % of control

O=c1[nH]c2nc(SCc3ccccc3)n(Cc3ccccc3)c2c(=O)n1OS(=O)(=O)c1ccccc1
inactive: dose: 100.0 mg/kg/injection, schedule: Q04DX002 (ip), vehicle: saline with Tween-80 101 % of control and 108 % of control | [10] 96 % of control | dose: 200.0 mg/kg/injection, schedule: Q04DX002 (ip), vehicle: saline with Tween-80 94 % of control and 96 % of control | [11] 94 % of control | dose: 400.0 mg/kg/injection, schedule: Q04DX002 (ip), vehicle: saline with Tween-80 94 % of control and 96 % of control | [12] 91 % of control

CCCCCCN(CCCCCC)CC(=O)Nc1ccc(S(=O)(=O)c2ccc(NC(=O)CN(CCCCCC)CCCCCC)cc2)cc1
inactive: dose: 25.0 mg/kg/injection, schedule: Q01DX001 (ip), vehicle: carboxymethylcellulose (CMC) 114 % of control | dose: 50.0 mg/kg/injection, schedule: Q01DX001 (ip), vehicle: carboxymethylcellulose (CMC) 97 % of control

CC(=O)CC(=O)NC(C)CCc1ccccc1 (configuration not stated)
inactive: [6] 92 % of control | [10] 98 % of control | [3] 92 % of control | [11] 102 % of control | [5] 104 % of control | [12] 98 % of control
